Legend:
NCI-H522 = assay: in vitro non-small cell lung cancer cell growth inhibition (NCI screen)
SK-MEL-2 = assay: in vitro melanoma cell growth inhibition (NCI screen)
SF-539 = assay: in vitro CNS cancer cell growth inhibition (NCI screen)
M19-MEL = assay: in vitro melanoma cell growth inhibition (NCI screen)
CCRF-CEM = assay: in vitro leukemia cell growth inhibition (NCI screen)
HCT-116 = assay: in vitro colon cancer cell growth inhibition (NCI screen)
LOX1MVI = assay: in vitro melanoma cell growth inhibition (NCI screen)
UO-31 = assay: in vitro renal cancer cell growth inhibition (NCI screen)
NCI-H23 = assay: in vitro non-small cell lung cancer cell growth inhibition (NCI screen)
K-562 = assay: in vitro leukemia cell growth inhibition (NCI screen)
HL-60(TB) = assay: as above
SK-MEL-5 = assay: in vitro melanoma cell growth inhibition (NCI screen)
SR = assay: in vitro leukemia cell growth inhibition (NCI screen)
XF-498 = assay: in vitro CNS cancer cell growth inhibition (NCI screen)
MALME-3M = assay: in vitro melanoma cell growth inhibition (NCI screen)
RXF-393 = assay: in vitro renal cancer cell growth inhibition (NCI screen)
MOLT-4 = assay: in vitro leukemia cell growth inhibition (NCI screen)
UACC-257 = assay: in vitro melanoma cell growth inhibition (NCI screen)
UACC-62 = assay: as above
ACHN = assay: in vitro renal cancer cell growth inhibition (NCI screen)
MDA-MB-435 = assay: in vitro breast cancer cell growth inhibition (NCI screen)
COLO-205 = assay: in vitro colon cancer cell growth inhibition (NCI screen)
MDA-N = assay: in vitro breast cancer cell growth inhibition (NCI screen)
SW 620 = assay: in vitro colon cancer cell growth inhibition (NCI screen)
HCT-15 = assay: as above
OVCAR-3 = assay: in vitro ovarian cancer cell growth inhibition (NCI screen)
KM 12 = assay: in vitro colon cancer cell growth inhibition (NCI screen)
HT 29 = assay: as above
PC-3 = assay: in vitro prostate cancer cell growth inhibition (NCI screen)
LXFL 529 = assay: in vitro non-small cell lung cancer cell growth inhibition (NCI screen)
DLD-1 = assay: in vitro colon cancer cell growth inhibition (NCI screen)
SNB-75 = assay: in vitro CNS cancer cell growth inhibition (NCI screen)
HOP-92 = assay: in vitro non-small cell lung cancer cell growth inhibition (NCI screen)
NCI-H460 = assay: as above
human tumor cell lines = assay type: cell-based; settings: Homo sapiens; cancer cell panel, general / most cell lines; read-out: logGI50 values in the cancer cell line panel (converted)
RPMI-8226 = assay: in vitro leukemia cell growth inhibition (NCI screen)
OVCAR-8 = assay: in vitro ovarian cancer cell growth inhibition (NCI screen)
IGROV1 = assay: as above
OVCAR-4 = assay: as above; settings: OVACR-4
M14 = assay: in vitro melanoma cell growth inhibition (NCI screen)
T-47D = assay: in vitro breast cancer cell growth inhibition (NCI screen)
MCF7/ADR-RES = assay: as above

Row | Structure (SMILES) | cytotoxicity log GI50 (NCI-H522) [M] | cytotoxicity log GI50 (SK-MEL-2) [M] | cytotoxicity log GI50 (SF-539) [M] | cytotoxicity log GI50 (M19-MEL) [M] | cytotoxicity log GI50 (HCT-116) [M] | cytotoxicity log GI50 (LOX1MVI) [M] | cytotoxicity log GI50 (UO-31) [M] | cytotoxicity log GI50 (NCI-H23) [M] | cytotoxicity log GI50 (K-562) [M] | cytotoxicity log GI50 (HL-60(TB)) [M] | cytotoxicity log GI50 (SK-MEL-5) [M] | cytotoxicity log GI50 (SR) [M] | cytotoxicity log GI50 (XF-498) [M] | cytotoxicity log GI50 (MALME-3M) [M] | cytotoxicity log GI50 (RXF-393) [M] | cytotoxicity log GI50 (UACC-257) [M] | cytotoxicity log GI50 (UACC-62) [M] | cytotoxicity log GI50 (COLO-205) [M] | cytotoxicity log GI50 (HCT-15) [M] | cytotoxicity log GI50 (OVCAR-3) [M] | also measured
1 | CCC(C)(C)NC1=C(NC(C)=O)C(=O)c2ccccc2C1=O [Compound 36] | -4.99 | -4.68 | -4.61 | -4.88 | -4.75 | -4.53 | -4.56 | -4.72 | -4.68 | -4.78 | -4.87 | -4.50 | -4.84 | -4.54 | -4.60 | -4.69 | -4.60 |  |  |  | cytotoxicity log GI50 (CCRF-CEM): -4.77 M; cytotoxicity log GI50 (MOLT-4): -4.86 M; cytotoxicity log GI50 (ACHN): -4.82 M
2 | CCCC(=O)NC1=C(NCC)C(=O)c2ccccc2C1=O [Compound 46] | -4.59 |  |  |  | -4.36 |  |  |  | -4.29 | -4.39 |  |  |  | -4.41 | -4.32 | -4.40 |  | -4.44 | -4.40 | -4.47 | cytotoxicity log GI50 (MDA-MB-435): -4.60 M; cytotoxicity log GI50 (MDA-N): -4.68 M; cytotoxicity log GI50 (SW 620): -4.48 M; cytotoxicity log GI50 (KM 12): -4.28 M; cytotoxicity log GI50 (HT 29): -4.36 M; cytotoxicity log GI50 (PC-3): -4.39 M
3 | CCC(CC)n1c(C)nc2c1C(=O)c1ccccc1C2=O [Compound 10] |  | -4.56 |  | -4.83 | -4.71 | -4.71 | -4.71 | -4.67 | -4.68 | -4.97 | -4.80 | -4.59 |  | -4.58 |  | -4.62 | -4.99 | -4.57 | -5.04 | -4.59 | cytotoxicity log GI50 (LXFL 529): -4.71 M; cytotoxicity log GI50 (DLD-1): -4.61 M; cytotoxicity log GI50 (SNB-75): -4.69 M; cytotoxicity log GI50 (HOP-92): -4.65 M; cytotoxicity log GI50 (NCI-H460): -4.68 M
4 | O=C(Cc1ccc(F)cc1)NC1=C(Cl)C(=O)c2ccccc2C1=O [Compound 2j] |  |  | -5.65 |  |  |  |  | -5.89 |  | -7.56 |  | -6.88 | -5.71 | -5.67 | -5.75 |  |  |  | -5.64 |  | GI50 (human tumor cell lines): 0.0251 to 2.51 µM; cytotoxicity log GI50 (RPMI-8226): -7.07 M; cytotoxicity log GI50 (SW 620): -5.68 M; cytotoxicity log GI50 (DLD-1): -5.62 M; cytotoxicity log GI50 (OVCAR-8): -5.71 M; cytotoxicity log GI50 (SNB-75): -5.66 M; cytotoxicity log GI50 (HOP-92): -5.72 M; cytotoxicity log GI50 (IGROV1): -5.73 M; cytotoxicity log GI50 (ACHN): -5.70 M
5 | CC(=O)NC1=C(NCC(C)(C)C)C(=O)c2ccccc2C1=O [Compound 38] | -4.72 |  | -4.48 | -4.68 | -4.47 |  | -4.33 |  | -4.42 | -4.49 | -4.40 |  | -4.59 | -4.46 | -4.43 | -4.30 | -4.41 | -4.41 | -4.26 | -4.26 | cytotoxicity log GI50 (CCRF-CEM): -4.42 M; cytotoxicity log GI50 (ACHN): -4.57 M
6 | Cc1nc2c(n1CC(C)C)C(=O)c1ccccc1C2=O [Compound 7] | -4.58 | -4.59 | -4.61 | -4.80 | -4.68 |  | -4.58 | -4.74 | -4.52 | -4.64 | -4.73 |  |  | -4.69 |  | -4.75 | -4.68 |  |  | -4.60 | cytotoxicity log GI50 (HOP-92): -4.99 M; cytotoxicity log GI50 (NCI-H460): -4.63 M
7 | CCC(C)(C)n1c(C)nc2c1C(=O)c1ccccc1C2=O [Compound 12] |  | -4.73 |  | -4.80 | -4.87 | -4.71 |  |  | -4.87 | -5.12 | -4.80 | -5.03 | -4.77 |  | -4.68 |  | -4.87 | -4.77 | -4.64 |  | cytotoxicity log GI50 (LXFL 529): -4.86 M; cytotoxicity log GI50 (DLD-1): -4.81 M; cytotoxicity log GI50 (NCI-H460): -4.91 M; cytotoxicity log GI50 (MOLT-4): -4.73 M
8 | COC(=O)CCCC(=O)NC1=C(Nc2ccccc2)C(=O)c2ccccc2C1=O [Compound 52] |  |  |  |  |  |  |  | -4.97 |  |  |  |  |  | -5.45 |  |  | -5.49 |  |  | -4.90 | cytotoxicity log GI50 (MDA-MB-435): -5.26 M; cytotoxicity log GI50 (MDA-N): -5.41 M; cytotoxicity log GI50 (KM 12): -5.28 M
9 | CCn1c(-c2ccccc2)nc2c1C(=O)c1ccccc1C2=O [Compound 25] | -4.82 |  |  |  |  |  |  |  |  |  | -4.95 |  |  | -5.06 | -4.81 | -5.41 |  | -4.85 |  | -5.23 | GI50 (human tumor cell lines): ~10 µM; cytotoxicity log GI50 (MDA-MB-435): -4.80 M; cytotoxicity log GI50 (OVCAR-4): -4.90 M; cytotoxicity log GI50 (M14): -4.81 M; cytotoxicity log GI50 (OVCAR-8): -4.85 M; cytotoxicity log GI50 (T-47D): -5.65 M; cytotoxicity log GI50 (HT 29): -5.05 M; cytotoxicity log GI50 (SNB-75): -4.61 M; cytotoxicity log GI50 (MCF7/ADR-RES): -4.88 M; cytotoxicity log GI50 (MOLT-4): -4.83 M; cytotoxicity log GI50 (PC-3): -4.99 M

From patent US5789431A, “Naphthoquinone antitumor compound and method” (The University of North Carolina at Chapel Hill, priority 1996, dated 1998)
